Measurements taken from ChEMBL document CHEMBL1128009, “Stereoselectivity of the positive inotropic effects of newer diazinone-cardiotonics” (Bioorg Med Chem Lett, 1994).

How the values were obtained:
[1] = Calcium sensitizing activity; assay type: functional
[2] = target: Phosphodiesterase 3 (Homo sapiens, UniProt Q14432+Q13370); experiment: Inhibition of phosphodiesterase 3; assay type: protein assay
[3] = Calcium sensitizing activity (No Effect); assay type: functional
[4] = Calcium sensitizing activity (Active); assay type: functional

SMILES | IC50 [2] [µM] | EC50 [1] [µM] | EC50 [3] | EC50 [4]
COc1ccc(C(=O)N2CCCc3cc(C4=NNC(=O)SC4C)ccc32)cc1OC (single isomer, unassigned; (+)) | – | 1.7 | – | –
COc1ccc(-c2nc3cc(C4=NNC(=O)CC4C)ccc3[nH]2)cc1 (single isomer, unassigned; (+)) [PIMOBENDAN] | – | 152 | – | –
COc1ccc(-c2nc3cc(C4=NNC(=O)CC4C)ccc3[nH]2)cc1 (stereo in doubt) [PIMOBENDAN] | – | 100 | – | –
CC1CC(=O)NN=C1c1cc2ccc(OCCN3CCCCC3)cc2s1 (stereo in doubt; (-)) | 0.08 | – | Not Active | –
COc1ccc(C(=O)N2CCCc3cc(C4=NNC(=O)SC4C)ccc32)cc1OC (single isomer, unassigned; (-)) | – | > 100 | – | –

Now from value to compound, other results behind:

IC50 [2] [µM] | SMILES | EC50 [1] [µM] | EC50 [3] | EC50 [4]
1.5 | CC1CC(=O)NN=C1c1ccc(NN=C(C#N)C#N)cc1 (stereo unspecified) [SIMENDAN] | > 100 | – | –
0.04 | CC1CC(=O)NN=C1c1ccc2[nH]c(-c3cc[nH]n3)nc2c1 (single isomer, unassigned; (-)) [MERIBENDAN] | 190 | – | –
0.008 | C[C@@H]1CC(=O)NN=C1c1ccc(NN=C(C#N)C#N)cc1 [LEVOSIMENDAN] | > 100 | – | –
1.6 | CC1CC(=O)NN=C1c1ccc2[nH]c(-c3cc[nH]n3)nc2c1 (single isomer, unassigned; (+)) [MERIBENDAN] | 470 | – | –
14.8 | CC1CC(=O)NN=C1c1cc2ccc(OCCN3CCCCC3)cc2s1 (stereo in doubt; (+)) | – | – | Active
